According to patent US20150307520A1, “NOVEL HETEROARYL AND HETEROCYCLE COMPOUNDS, COMPOSITIONS AND METHODS THEREOF” (HUTCHISON MEDIPHARMA LIMITED, priority 2012, published 2015):

Legend:
Type in all cases: biochemical
p110δ/p85α = p110δ/p85α (Homo sapiens, UniProt O00329); experiment: Transcreener KINASE Assay, kinase inhibition of p110δ/p85α; details: for PI3Kδ IH % @ 1 uM: 1 uM test compound; for IC50: read-out: PI3Kδ IC50
Experimental: (§1) PI3K kinases including p110α/p85α, p110δ/p85α and p110γ are purchased from Invitrogen, and p110β/p85α is from Millipore.
(§2) Primary screening data and IC50 values are measured using Transcreener™ KINASE Assay (Bellbrook, Catalog #3003-10K). […] It is a universal, homogenous, high throughput screening (HTS) technology using a far-red, competitive fluorescence polarization immunoassay based on the detection of ADP to monitor the activity of enzymes that catalyze group transfer reactions. Briefly, the Transcreener KINASE Assay is designed as a simple two-part, endpoint assay.
(§3) In the first step, the 25 ul kinase reaction is performed by preparing a reaction mixture containing 5 ul test compound (2% DMSO final concentration), 10 ul kinase, buffer (50 mM HEPES, 100 mM NaCl, 1 mM EGTA, 0.03% CHAPS, 3 mM MgCl2, and freshly supplemented 1 mM DTT), and 10 ul 30 uM PIP2/10 uM ATP. The plate is sealed and incubated for 80 min at room temperature. Next, 25 ul ADP detection mix is added per well. The plate is sealed again and incubated for 60 min at room temperature, and then measure fluorescence polarization by Tecan Infinite F500 Reader.
(§4) Data is analyzed and IC50s are generated using the add-in software for Microsoft Excel, Xlfit™ (version 2.0). IH %=(ADP amount under 2% DMSO-ADP amount under test compound)/ADP amount under 2% DMSO.

p110β/p85α = p110β/p85α (Homo sapiens, UniProt P42338); experiment: Transcreener KINASE Assay, kinase inhibition of p110β/p85α; details: for PI3Kβ IH % @ 1 uM: 1 uM test compound; for IC50: read-out: PI3Kβ IC50
Chain of p110β/p85α (P42338 whole entry): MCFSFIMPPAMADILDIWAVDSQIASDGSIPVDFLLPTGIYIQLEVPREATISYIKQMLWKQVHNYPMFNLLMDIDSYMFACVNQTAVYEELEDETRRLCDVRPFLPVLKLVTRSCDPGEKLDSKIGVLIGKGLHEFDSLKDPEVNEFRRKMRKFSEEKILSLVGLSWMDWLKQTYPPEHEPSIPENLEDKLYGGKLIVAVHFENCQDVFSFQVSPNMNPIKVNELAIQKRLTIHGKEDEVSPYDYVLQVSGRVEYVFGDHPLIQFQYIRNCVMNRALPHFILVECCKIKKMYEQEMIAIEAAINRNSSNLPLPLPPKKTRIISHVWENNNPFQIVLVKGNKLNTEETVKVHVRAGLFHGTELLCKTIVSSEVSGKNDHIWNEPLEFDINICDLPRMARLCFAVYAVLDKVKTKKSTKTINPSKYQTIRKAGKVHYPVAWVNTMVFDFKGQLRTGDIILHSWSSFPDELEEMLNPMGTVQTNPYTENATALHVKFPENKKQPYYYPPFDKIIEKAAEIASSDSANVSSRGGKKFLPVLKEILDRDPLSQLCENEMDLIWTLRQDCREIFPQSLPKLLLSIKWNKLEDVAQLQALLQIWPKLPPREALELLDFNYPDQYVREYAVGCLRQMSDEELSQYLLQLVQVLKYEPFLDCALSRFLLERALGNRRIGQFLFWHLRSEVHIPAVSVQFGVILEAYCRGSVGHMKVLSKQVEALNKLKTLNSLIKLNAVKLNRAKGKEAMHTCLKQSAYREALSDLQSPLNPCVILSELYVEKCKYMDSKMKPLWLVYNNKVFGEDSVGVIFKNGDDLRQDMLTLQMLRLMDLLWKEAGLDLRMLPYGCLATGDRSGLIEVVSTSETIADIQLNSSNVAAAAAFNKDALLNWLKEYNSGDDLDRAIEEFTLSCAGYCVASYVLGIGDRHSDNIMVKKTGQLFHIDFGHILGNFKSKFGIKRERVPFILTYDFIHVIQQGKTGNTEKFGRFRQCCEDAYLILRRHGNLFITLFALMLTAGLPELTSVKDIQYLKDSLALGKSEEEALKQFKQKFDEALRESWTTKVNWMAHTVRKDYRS
Chain of p110β/p85α (P27986 2-724 partner): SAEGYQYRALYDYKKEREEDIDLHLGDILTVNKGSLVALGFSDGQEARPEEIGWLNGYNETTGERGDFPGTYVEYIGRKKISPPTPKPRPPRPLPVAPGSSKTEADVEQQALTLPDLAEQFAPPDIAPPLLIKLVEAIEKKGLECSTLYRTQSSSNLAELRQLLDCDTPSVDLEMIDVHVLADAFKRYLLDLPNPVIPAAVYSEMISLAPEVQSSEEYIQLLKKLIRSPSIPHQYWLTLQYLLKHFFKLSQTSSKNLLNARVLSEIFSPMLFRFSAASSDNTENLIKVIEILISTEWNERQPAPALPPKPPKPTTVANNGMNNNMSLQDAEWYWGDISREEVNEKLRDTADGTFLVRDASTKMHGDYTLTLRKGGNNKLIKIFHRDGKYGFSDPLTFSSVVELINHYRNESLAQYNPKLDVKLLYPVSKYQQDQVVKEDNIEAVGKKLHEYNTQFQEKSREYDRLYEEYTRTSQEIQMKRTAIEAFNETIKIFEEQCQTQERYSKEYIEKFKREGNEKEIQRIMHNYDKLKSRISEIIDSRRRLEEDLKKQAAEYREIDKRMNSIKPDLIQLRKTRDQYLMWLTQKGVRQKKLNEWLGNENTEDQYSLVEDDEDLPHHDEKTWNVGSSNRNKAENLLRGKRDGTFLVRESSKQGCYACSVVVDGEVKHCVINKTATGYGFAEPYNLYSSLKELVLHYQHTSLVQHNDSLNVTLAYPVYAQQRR
Experimental: as §1, §2, §3, §4

p110γ = p110γ (Homo sapiens, UniProt P48736); experiment: Transcreener KINASE Assay, kinase inhibition of p110γ; details: for PI3Kγ IH % @ 1 uM: 1 uM test compound; for IC50: read-out: PI3Kγ IC50
Chain of p110γ (P48736 whole entry): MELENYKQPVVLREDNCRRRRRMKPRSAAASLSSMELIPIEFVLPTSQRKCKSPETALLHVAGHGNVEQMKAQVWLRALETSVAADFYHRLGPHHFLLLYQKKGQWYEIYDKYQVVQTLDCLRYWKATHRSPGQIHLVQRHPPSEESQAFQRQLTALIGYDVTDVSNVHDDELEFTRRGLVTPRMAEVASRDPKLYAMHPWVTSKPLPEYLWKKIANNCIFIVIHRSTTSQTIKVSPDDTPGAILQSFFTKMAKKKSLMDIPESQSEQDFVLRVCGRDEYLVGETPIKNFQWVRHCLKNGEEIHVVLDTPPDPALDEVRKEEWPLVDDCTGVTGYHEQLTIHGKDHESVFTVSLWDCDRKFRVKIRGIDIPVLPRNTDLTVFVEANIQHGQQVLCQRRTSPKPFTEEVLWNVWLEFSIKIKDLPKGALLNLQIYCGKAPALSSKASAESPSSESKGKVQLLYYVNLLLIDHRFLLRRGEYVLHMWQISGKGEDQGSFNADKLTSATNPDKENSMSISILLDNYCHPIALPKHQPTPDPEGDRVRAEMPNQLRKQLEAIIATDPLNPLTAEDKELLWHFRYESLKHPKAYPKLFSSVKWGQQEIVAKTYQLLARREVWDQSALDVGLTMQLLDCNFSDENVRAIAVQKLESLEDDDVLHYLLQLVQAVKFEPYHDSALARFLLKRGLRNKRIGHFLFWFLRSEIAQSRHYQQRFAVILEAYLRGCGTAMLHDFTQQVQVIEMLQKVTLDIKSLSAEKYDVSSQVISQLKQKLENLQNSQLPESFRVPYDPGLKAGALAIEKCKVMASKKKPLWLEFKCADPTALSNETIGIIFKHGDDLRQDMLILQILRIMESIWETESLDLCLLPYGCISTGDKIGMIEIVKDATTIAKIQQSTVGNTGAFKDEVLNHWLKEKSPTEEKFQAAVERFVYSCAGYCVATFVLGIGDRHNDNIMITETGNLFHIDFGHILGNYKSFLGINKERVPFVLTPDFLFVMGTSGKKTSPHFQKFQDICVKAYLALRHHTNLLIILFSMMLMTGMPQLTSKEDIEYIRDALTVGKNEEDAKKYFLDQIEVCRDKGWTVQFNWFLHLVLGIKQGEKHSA
Experimental: Kinase Inhibition assays of p110α/p85α, p110β/p85α, p110δ/p85α and p110γ PI3K kinases including p110α/p85α, p110δ/p85α and p110γ are purchased from Invitrogen, and p110β/p85α is from Millipore. Primary screening data and IC50 values are measured using Transcreener™ KINASE Assay (Bellbrook, Catalog #3003-10K). […] It is a universal, homogenous, high throughput screening (HTS) technology using a far-red, competitive fluorescence polarization immunoassay based on the detection of ADP to monitor the activity of enzymes that catalyze group transfer reactions. Briefly, the Transcreener KINASE Assay is designed as a simple two-part, endpoint assay. […] The plate is sealed and incubated for 80 min at room temperature. Next, 25 ul ADP detection mix is added per well. The plate is sealed again and incubated for 60 min at room temperature, and then measure fluorescence polarization by Tecan Infinite F500 Reader. Data is analyzed and IC50s are generated using the add-in software for Microsoft Excel, Xlfit™ (version 2.0).

Chain of p110δ/p85α (O00329 whole entry): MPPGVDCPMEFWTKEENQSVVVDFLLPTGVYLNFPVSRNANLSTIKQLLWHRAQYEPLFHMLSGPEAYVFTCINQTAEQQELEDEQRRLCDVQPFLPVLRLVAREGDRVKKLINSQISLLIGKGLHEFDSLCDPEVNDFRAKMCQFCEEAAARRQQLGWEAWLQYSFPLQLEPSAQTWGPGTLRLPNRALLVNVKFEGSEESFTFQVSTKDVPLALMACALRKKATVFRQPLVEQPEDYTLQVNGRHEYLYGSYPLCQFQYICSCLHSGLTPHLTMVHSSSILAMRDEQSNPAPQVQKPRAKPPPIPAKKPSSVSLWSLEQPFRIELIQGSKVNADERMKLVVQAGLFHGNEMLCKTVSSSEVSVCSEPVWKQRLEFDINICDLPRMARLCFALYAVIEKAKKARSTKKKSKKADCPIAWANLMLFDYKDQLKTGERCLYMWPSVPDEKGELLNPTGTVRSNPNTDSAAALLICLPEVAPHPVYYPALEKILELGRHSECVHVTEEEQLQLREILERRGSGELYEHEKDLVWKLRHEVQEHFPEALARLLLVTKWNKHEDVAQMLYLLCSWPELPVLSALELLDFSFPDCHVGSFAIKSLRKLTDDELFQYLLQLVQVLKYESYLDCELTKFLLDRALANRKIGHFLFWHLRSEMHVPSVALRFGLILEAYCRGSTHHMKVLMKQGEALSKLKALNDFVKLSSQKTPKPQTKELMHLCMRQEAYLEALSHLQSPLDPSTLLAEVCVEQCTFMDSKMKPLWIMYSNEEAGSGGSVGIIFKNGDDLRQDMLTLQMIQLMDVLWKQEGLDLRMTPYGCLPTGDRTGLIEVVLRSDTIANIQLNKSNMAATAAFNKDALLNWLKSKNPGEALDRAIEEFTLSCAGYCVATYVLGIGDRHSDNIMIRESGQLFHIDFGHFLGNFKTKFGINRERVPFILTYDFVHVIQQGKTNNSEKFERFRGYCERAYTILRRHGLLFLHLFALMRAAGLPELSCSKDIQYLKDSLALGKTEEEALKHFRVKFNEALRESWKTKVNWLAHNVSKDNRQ
Chain of p110δ/p85α (P27986 whole entry partner): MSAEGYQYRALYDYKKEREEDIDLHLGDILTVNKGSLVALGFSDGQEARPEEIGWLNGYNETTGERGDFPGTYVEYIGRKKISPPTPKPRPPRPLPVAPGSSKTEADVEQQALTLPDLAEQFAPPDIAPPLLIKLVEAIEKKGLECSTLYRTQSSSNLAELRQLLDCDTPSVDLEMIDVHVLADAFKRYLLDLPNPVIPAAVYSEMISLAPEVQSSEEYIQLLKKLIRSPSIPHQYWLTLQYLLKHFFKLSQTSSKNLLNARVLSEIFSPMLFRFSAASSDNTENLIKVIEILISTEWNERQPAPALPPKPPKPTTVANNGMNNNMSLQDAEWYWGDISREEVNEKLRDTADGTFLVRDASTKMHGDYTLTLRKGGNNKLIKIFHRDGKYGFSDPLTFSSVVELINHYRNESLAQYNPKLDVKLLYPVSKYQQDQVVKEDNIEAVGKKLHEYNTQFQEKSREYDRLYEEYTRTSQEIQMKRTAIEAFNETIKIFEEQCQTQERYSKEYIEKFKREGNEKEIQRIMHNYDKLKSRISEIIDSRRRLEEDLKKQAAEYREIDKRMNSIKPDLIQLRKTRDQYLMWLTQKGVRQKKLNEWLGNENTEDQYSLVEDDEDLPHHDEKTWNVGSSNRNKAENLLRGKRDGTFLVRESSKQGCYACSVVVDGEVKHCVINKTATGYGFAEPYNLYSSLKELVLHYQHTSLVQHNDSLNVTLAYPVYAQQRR

Row | SMILES | PI3Kδ IH % @ 1 uM (p110δ/p85α) [%] | IC50 (p110δ/p85α) [nM] | PI3Kβ IH % @ 1 uM (p110β/p85α) [%] | PI3Kγ IH % @ 1 uM (p110γ) [%] | IC50 (p110γ) [nM] | IC50 (p110β/p85α) [nM]
1 | Nc1ncc(C(F)(F)F)c(N2CCC[C@H]2c2nn3ccc(Cl)c3c(=O)n2-c2ccccc2)n1 [Compound 50] | >100 | 29 | 4.4 | 89.3 | 149 | 
2 | O=c1c2c(C3CC3)ccn2nc([C@@H]2CCCN2c2ncnc3[nH]cnc23)n1-c1ccccc1 [Compound 51] | 80.1 | 343 | −7.4 | 89.1 | 293 | 
3 | N#Cc1c[nH]c2ncnc(N3CCC[C@H]3c3nn4ccc(C5CC5)c4c(=O)n3-c3ccccc3)c12 [Compound 52] | 87.2 | 110 | 8.8 | 89.3 | 107 | 
4 | Nc1nc(N2CCC[C@H]2c2nn3ccc(C4CC4)c3c(=O)n2-c2ccccc2)c2nc[nH]c2n1 [Compound 53] | 68.8 |  | −11.0 | 86.4 | 35 | 
5 | Nc1nc2cccc(N3CCC[C@H]3c3nn4ccc(Cl)c4c(=O)n3-c3ccccc3)n2n1 [Compound 54] | 90.1 | 207 | 26.0 | 11.9 |  | 
6 | N#Cc1c[nH]c2ncnc(N3CC[C@H]3c3nn4ccc(Br)c4c(=O)n3-c3ccccc3)c12 [Compound 55] | 97.6 | 8 | 23.8 | 99.5 | 67 | 
7 | O=c1c2c(Br)ccn2nc([C@@H]2CCN2c2ncnc3[nH]cnc23)n1-c1ccccc1 [Compound 56] | 91.1 |  | 21.7 | 83.9 |  | 
8 | O=c1c2c(Cl)ccn2nc([C@@H]2CC(F)(F)CN2c2ncnc3[nH]cnc23)n1-c1ccccc1 [Compound 57] | 98.2 | 13 | 37.1 | 88.3 | 239 | 
9 | N#Cc1c[nH]c2ncnc(N3CC(F)(F)C[C@H]3c3nn4ccc(Cl)c4c(=O)n3-c3ccccc3)c12 [Compound 58] | >100 | 5 | 45.5 | 97.6 | 73 | 
10 | N#Cc1c[nH]c2ncnc(N3CC[C@H]3c3nn4ccc(Cl)c4c(=O)n3CC(F)F)c12 [Compound 59, (S)-4-(2-(5-chloro-3-(2,2-difluoroethyl)-4-oxo-3,4-dihydropyrrolo[2,1-f][1,2,4]triazin-2-yl)azetidin-1-yl)-7H-pyrrolo[2,3-d]pyrimidine-5-carbonitrile] | 73.6 | 392 | 34.7 | 45.8 |  | 
11 | N#Cc1c[nH]c2ncnc(N3CC[C@H]3c3nn4ccc(Cl)c4c(=O)n3Cc3ccccn3)c12 [Compound 60] | 69.0 | 325 | 3.2 | 29.5 |  | 
12 | N#Cc1c[nH]c2ncnc(N3CC[C@H]3c3nn4ccc(Cl)c4c(=O)n3Cc3cccnc3)c12 [Compound 61] | 73.9 | 309 | 7.9 | 45.1 |  | 
13 | Cn1c([C@@H]2CCCN2c2ncnc3[nH]cc(C#N)c23)nn2ccc(Cl)c2c1=O [Compound 63] | 97.7 |  | 93.7 | >100 | 81 | 61
14 | N#Cc1c[nH]c2ncnc(N3CCC[C@H]3c3nn4ccc(Cl)c4c(=O)n3CC(F)(F)F)c12 [Compound 67] | 98.1 | 7 | 71.3 | 61.0 |  | 188
15 | O=c1c2c(Cl)ccn2nc([C@@H]2CCCN2c2ncnc3[nH]cnc23)n1Cc1ccccn1 [Compound 68] | 98.5 | 28 | 52.1 | 73.8 | 78 | 
16 | N#Cc1c[nH]c2ncnc(N3C[C@@H](O)C[C@H]3c3nn4ccc(Cl)c4c(=O)n3-c3ccccc3)c12 [Compound 71] | >100 | 1 | >100 | >100 | 9 | 31
17 | CO[C@@H]1C[C@@H](c2nn3ccc(Cl)c3c(=O)n2-c2ccccc2)N(c2ncnc3[nH]cnc23)C1 [Compound 72, 5-chloro-2-((2S,4R)-4-methoxy-1-(9H-purin-6-yl)pyrrolidin-2-yl)-3-phenylpyrrolo[2,1-f][1,2,4]triazin-4(3H)-one] | 91.6 | 88 | 13.5 | 49.5 |  | 
18 | N#Cc1c[nH]c2ncnc(N3C[C@@H](F)C[C@H]3c3nn4ccc(Cl)c4c(=O)n3-c3ccccc3)c12 [Compound 74] | >100 | 1 | >100 | >100 |  | 25
19 | CC(Nc1ncnc2[nH]cnc12)c1cn2ccc(Cl)c2c(=O)n1-c1cccc(F)c1 (stereo not drawn) [Compound 75, 3-(1-(9H-purin-6-ylamino)ethyl)-8-chloro-2-(3-fluorophenyl)pyrrolo[1,2-a]pyrazin-1(2H)-one] | 99.1 | 3 | 69.3 | 97.3 | 8 | 96
20 | CC(Nc1ncnc2[nH]cc(C#N)c12)c1cn2ccc(Cl)c2c(=O)n1-c1cccc(F)c1 (stereo not drawn) [Compound 76] | 98.8 |  | 82.0 | 93.9 |  | 104
21 | CC(Nc1ncnc2[nH]cnc12)c1cn2ccc(Cl)c2c(=O)n1-c1ccc(F)cc1 (stereo not drawn) [Compound 78] | 98.2 |  | 92.4 | 91.2 |  | 
22 | CC(Nc1ncnc(N)c1C#N)c1cn2ccc(Cl)c2c(=O)n1-c1ccc(F)cc1 (stereo not drawn) [Compound 79] | 99.0 |  | 96.3 | 91.6 |  | 
23 | CC(Nc1ncnc2[nH]cnc12)c1cn2ccc(Cl)c2c(=O)n1-c1cc(F)cc(F)c1 (stereo not drawn) [Compound 80] | >100 |  | 58.9 | 83.5 |  | 
24 | CC(Nc1ncnc(N)c1C#N)c1cn2ccc(Cl)c2c(=O)n1-c1cc(F)cc(F)c1 (stereo not drawn) [Compound 81] | >100 |  | 79.0 | 87.9 |  | 217
25 | CC(Nc1ncnc2[nH]cc(C#N)c12)c1cn2cccc2c(=O)n1-c1ccccc1 (stereo not drawn) [Compound 82] | 98.7 |  | 56.4 | 78.6 | 194 | 
26 | CC(Nc1ncnc2[nH]cnc12)c1cn2cccc2c(=O)n1-c1ccccc1 (stereo not drawn) [Compound 83] | 97.3 |  | 42.7 | 78.6 | 309 | 
27 | CC(Nc1ncnc2[nH]cc(C#N)c12)c1cn2ccc(Cl)c2c(=O)n1-c1ccccc1 (stereo not drawn) [Compound 88] | 93.2 |  | 94.7 | 98.0 | 14 | 58
28 | CC(Nc1ncnc(N)c1C#N)c1cn2ccc(Cl)c2c(=O)n1-c1ccccc1 (stereo not drawn) [Compound 89] | >100 |  | 96.1 | 94.8 |  | 17
29 | Cc1ccn2cc(C(C)Nc3ncnc(N)c3C#N)n(-c3ccccc3)c(=O)c12 (stereo not drawn) [Compound 90, 4-amino-6-(1-(8-methyl-1-oxo-2-phenyl-1,2-dihydropyrrolo[1,2-a]pyrazin-3-yl)ethylamino)pyrimidine-5-carbonitrile] | >100 |  | 93.1 | 95.7 | 34 | 24
30 | CC(Nc1ncnc2[nH]cnc12)c1cn2ccc(-c3cnn(C)c3)c2c(=O)n1-c1ccccc1 (stereo not drawn) [Compound 93, 3-(1-(9H-purin-6-ylamino)ethyl)-8-(1-methyl-1H-pyrazol-4-yl)-2-phenylpyrrolo[1,2-a]pyrazin-1(2H)-one] | 77.6 | 244 | 5.4 | 53.7 |  | 
